The results in this text go back to ChEMBL document CHEMBL6134920, “Novel Heterocyclic Pyrimidine Derivatives as GSK3α Inhibitors” (ACS Med Chem Lett, 2025).

A short description of this assay: Inhibition of Nanoluc-GSK2alpha (unknown origin) expressed in HEK293 cells measured after overnight incubation by NanoBRET- cellular assay. The conditions noted are these: Homo sapiens.

In turn, `COCc1cc(Cl)c(-n2cnc(N)c(C(=O)Nc3cncc(C(N)COC)c3)c2=O)c(Cl)c1` (stereo unspecified) displayed a half-inhibitory concentration (IC50) of 2.4 nM. Then `COCC(N)c1cncc(NC(=O)c2c(N)ncn(-c3c(Cl)cc(OC4CC4)cc3Cl)c2=O)c1` (stereo unspecified), with 2.4 nM; and `Nc1ncn(-c2c(Cl)cc(C(F)CF)cc2Cl)c(=O)c1C(=O)Nc1cncc([C@H]2CCCCN2)c1` (stereo partly specified), with 2 nM; and `CCNCc1cncc(NC(=O)c2c(N)ncn(-c3c(Cl)cc(OCC)cc3Cl)c2=O)c1`, with 4.8 nM. Then `CNC(COC)c1cncc(NC(=O)c2c(N)ncn(-c3c(Cl)cc(COC)cc3Cl)c2=O)c1` (stereo unspecified), with 1.9 nM. Then `COCC(N)c1cncc(NC(=O)c2c(N)ncn(-c3c(Cl)cc(C(F)F)cc3Cl)c2=O)c1` (stereo unspecified), with 2.8 nM.
